Target: bovine serum albumin (BSA) (Bos taurus, UniProt P02769)
Conditions: BSA 0.02 mM, complex 2 mM, 60° C., pH 9, 24 h incubation; reference without complex = 1.0
Procedure: The hydrolysis of protein dirt was investigated using degradation of bovine serum albumin (BSA). […] The incubated material was then examined with the known method of SDS-PAGE with regard to the intensity of the band to be assigned to BSA. BSA incubated under the same conditions without the addition of complexes served as reference. The intensity values given in the following table are relative values based on the intensity of the band of the reference at t=24 h.

Sequence of bovine serum albumin (BSA) (P02769 25-607): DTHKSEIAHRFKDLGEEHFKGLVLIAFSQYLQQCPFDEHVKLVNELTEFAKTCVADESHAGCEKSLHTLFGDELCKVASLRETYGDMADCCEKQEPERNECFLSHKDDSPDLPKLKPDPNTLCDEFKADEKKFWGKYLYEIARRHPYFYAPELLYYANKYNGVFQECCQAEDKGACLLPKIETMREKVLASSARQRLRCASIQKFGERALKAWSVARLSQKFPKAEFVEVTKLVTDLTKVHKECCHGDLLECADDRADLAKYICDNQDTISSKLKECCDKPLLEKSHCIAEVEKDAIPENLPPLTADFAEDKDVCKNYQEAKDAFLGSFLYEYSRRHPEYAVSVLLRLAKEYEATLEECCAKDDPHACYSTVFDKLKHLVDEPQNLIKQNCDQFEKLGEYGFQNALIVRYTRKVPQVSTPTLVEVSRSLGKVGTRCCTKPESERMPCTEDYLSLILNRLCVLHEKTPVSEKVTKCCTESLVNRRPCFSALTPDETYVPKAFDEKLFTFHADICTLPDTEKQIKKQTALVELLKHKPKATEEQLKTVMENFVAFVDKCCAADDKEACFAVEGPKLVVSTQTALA

## Sc (III) Complex of 1,7-dioxa-4,10-diazacyclododecane-4,10-di(methyl(phenol)) [complex P1]
  Intensity (of the SDS-PAGE band assigned to BSA, relative to the reference band at t=24 h): 0.84

Reference: patent publication US20240327756A1, “METAL COMPLEXES, AND D[…] CONTAINING SAME” (HENKEL AG & CO. KGAA, priority 2021, published 2024)
